# Data published in US6800762B2, “Indolin derivaties as sun protection agents” (Ciba Specialty Chemicals Corporation, priority 1998, dated 2004).
# Experiments:
# [1] = UV absorption: molar extinction coefficient at λmax; format: physicochemical
# Text: ε=62081 in ethanol l/(mol/cm) at λmax=434 nm, elemental analysis for C24H32N2O2[%]:
# photostability = format: physicochemical; conditions: read-out: photostability t1/2 (converted)
ε ([1]; in ethanol at λmax),half-life (photostability),λmax ([1]; in ethanol),λmax ([1]; in dioxane),ε ([1]; in dioxane at λmax),SMILES
34520 l/(mol/cm),208 h,,,,"CN1/C(=C\C=O)C(C)(C)c2ccccc21 [Example 1, 2-(1,3,3-trimethyl-indolin-2-ylene) acetaldehyde]"
62081 l/(mol/cm),,434 nm,,,CCCCC(CC)COC(=O)/C(C#N)=C/C=C1\N(C)c2ccccc2C1(C)C (stereo not drawn) [Example 2]
,,,377 nm,29427 l/(mol/cm),CN1/C(=C/C(=O)c2ccccc2)C(C)(C)c2ccccc21 [Example 3]
